Where two headings read alike, the source gives them in different places.
How the values were obtained:
[1] = Single dose ASA pharmacokinetics, IR ASA vs. ER ASA; format: in vivo, human; settings: for AUC(0-t) / Cmax / Tmax: human, serum, oral, ASA
Procedure: (§1) Healthy adults were randomized to receive single doses of extended release ASA (“ER ASA”) at a dosage of 20 mg, 40 mg, 81 mg, 162.5 mg ER ASA (Durlaza®; New Haven Pharmaceuticals, Inc., North Haven, Conn.), or 325 mg, or immediate release ASA (“IR ASA”; aspirin powder USP; Letco Medical, Decatur, Ala.) at a dosage of 5 mg, 10 mg, 20 mg, 40 mg or 81 mg. […] For pharmacodynamic assessments, serum 11-dehydro-thromboxane (“TxB2”, a stable metabolite of thromboxane A2) levels were assessed using a validated enzyme immunoassay kit in serial blood samples collected 1 hour before dosing and at 0.5, 1, 2, 4, 8, 16, and 24 hours after drug administration.

[2] = test system: 2, 3-dinor-6-keto-PGF1α (prostacyclin); assay: Urinary 2,3-dinor-6-keto-PGF1α (prostacyclin) excretion by GC/MS, basal and bradykinin-stimulated (Example 3); format: in vivo, human
Procedure: Each subject was prohibited from taking any aspirin for two weeks prior to being administered the randomly chosen drug daily for 1 week followed by a urine collection 24 hours after dosing. This protocol was repeated two additional times. […] Statistical analysis was done using Wilcoxon rank sum test for continuous variables and the Pearson test for categorical variables.

serum TxB2 = settings: 75 mg IR ASA; Würtz et al.; cited from earlier work
[3] = test system: platelet aggregation / clot strength; assay: Plateletmapping assay (TEG-6S analyzer); format: in vivo, human; settings: Visit 2 trough
Procedure: The […]® assay ([…] is a registered trademark of Haemoscope Corp.) was conducted using a TEG®-6S analyzer (TEG is a registered trademark of Haemoscope Corp.) and results included parameters: […] For summary purposes the change in each parameter over 24 hours is calculated by subtracting the result at 24 hours from the result at 1 hour (i.e., absolute difference). […] For this study the trough level data are from the following timepoints: (1) for 81 mg-the data at Visit 2; […]

platelet aggregation [4] = assay: VerifyNow Aspirin Assay (ARU), turbidimetric optical detection in whole blood; format: in vivo, human; settings: Visit 2 trough
Procedure: The VerifyNow® is a turbidimetric based optical detection system that measures platelet aggregation in the whole blood and reports the optical signals as aspirin reaction units (“ARU”). The percent change in ARU over 24 hours (“ARU24”) is calculated from 1 hour post dose using the following formulas: ARU12(%)=(([…]16(%)=(([…]1)*100 and ARU24(%)=(([…]1)*100. […] For this study the trough level data are from the following timepoints: (1) for 81 mg-the data at Visit 2; […]

platelet aggregation [5] = assay: AA-, collagen- and ADP-induced light transmittance aggregometry (LTA); format: in vivo, human; settings: Visit 2 trough
Procedure: High platelet reactivity has previously been implicated in incomplete inhibition during therapy with immediate release low-dose aspirin in patients with type II diabetes. The main study consisted of a run-in phase where subjects were administered 81 mg, everyday (“QD”), of immediate release acetylsalicylic acid (“IR ASA”) for 7-28 days. […] During Visits 2 and 5 subjects were subjected to the following tests: (1) platelet aggregation measurements (a) AA induced, (b) collagen induced, and (c) Multiplate®; […] During Visits 3 and 6 subjects were subjected to the following tests: (1) platelet aggregation measurements (a) AA induced, (b) collagen induced, and (c) Multiplate®; […] An increase in platelet aggregation ([…], or […] or […]) by more than 15% with either agonists (i.e., arachidonic acid or collagen) is considered a significant loss of aspirin effect over 24 hours. […] For this study the trough level data are from the following timepoints: (1) for 81 mg-the data at Visit 2; […]

[6] = test system: High Sensitive C-Reactive Protein (hs-CRP); assay: High Sensitive C-Reactive Protein (hs-CRP) test; format: in vivo, human; settings: V2 pre-dose, 81 mg IR ASA
Procedure: Subjects were also measured for high sensitive C-reactive protein (“hs-CRP”) levels at Visit 1, Visit 2, Visit 3 pre-dose, Visit 3 at 24 hours, Visit 6 pre-dose and Visit 6 at 24 hours.
High Sensitive C-Reactive Protein (“hs-CRP”) was measured using a Seimens Immulite 2000® Xpi analyzer (Immulite 2000 is a registered trademark of Siemens Healthcare Diagnostic, Inc.), prior to 162.5 mg ER ASA (Durlaza®) dosing at Visit 2 pre-dose, at Visit 3 pre-dose and Visit 3 at 24-hr post-dose for the 162.5 mg ER ASA (Durlaza®) dose, and at Visit 6 pre-dose and Visit 6 at 24-hr post-dose for the 325 mg ER ASA dose.

[7] = test system: serum 11-dehydro-thromboxane (TxB2) production; assay: Single dose inhibition of serum TxB2 production (enzyme immunoassay); format: in vivo, human; settings: highest doses: ER ASA 81 mg, 162.5 mg (Durlaza), 325 mg; IR ASA 40 mg and 81 mg
Procedure: as §1

[8] = single dose 5 mg, healthy adults
[9] = single dose 10 mg, healthy adults
[10] = single dose 20 mg, healthy adults
[11] = single dose 40 mg, healthy adults
[12] = single dose 81 mg, healthy adults
[13] = 81 mg IR, subjects compared with Visit 6 (sub-study)

- time required to reach the maximum concentration of ASA ([1]; all doses, single dose, healthy adults): 1 to 2 h
- AUC(0-t) ([1]; 5 mg, single dose 5 mg, healthy adults, read-out: AUClast): 26.8 ng·h/mL
- AUC(0-t) ([1]; 10 mg, single dose 10 mg, healthy adults, read-out: AUC0-8): 136 ng·h/mL
- AUC(0-t) ([1]; 10 mg, single dose 10 mg, healthy adults, read-out: AUClast): 74.9 ng·h/mL
- AUC(0-t) ([1]; 20 mg, single dose 20 mg, healthy adults, read-out: AUC0-8): 366 ng·h/mL
- AUC(0-t) ([1]; 20 mg, single dose 20 mg, healthy adults, read-out: AUClast): 148 ng·h/mL
- AUC(0-t) ([1]; 40 mg, single dose 40 mg, healthy adults, read-out: AUClast): 384 ng·h/mL
- AUC(0-t) ([1]; 81 mg, single dose 81 mg, healthy adults, read-out: AUClast): 865 ng·h/mL
- Cmax [1, 8]: 25.1 ng/mL
- Tmax [1, 8]: 1.2 h
- Cmax [1, 9]: 63.9 ng/mL
- Tmax [1, 9]: 1.5 h
- Cmax [1, 10]: 123 ng/mL
- Tmax [1, 10]: 1.6 h
- Cmax [1, 11]: 228 ng/mL
- Tmax [1, 11]: 1.4 h
- Cmax [1, 12]: 504 ng/mL
- Tmax [1, 12]: 1.4 h
- time period over which serum concentrations of ASA were maintained ([1]; single dose, 8 hours = sampling interval evaluated): 6 h
SMILES: CC(=O)Oc1ccccc1C(=O)O [IR ASA, acetylsalicylic acid]
- Bradykinin-stimulated prostacyclin levels over placebo ([2]; 81 mg): significantly reduced
- Basal prostacyclin levels over placebo ([2]; 81 mg daily for 1 week): significantly reduced
- Bradykinin-stimulated prostacyclin levels over placebo ([2]; 162.5 mg): significantly reduced
- Basal prostacyclin levels over placebo ([2]; 162.5 mg daily for 1 week): significantly reduced
- serum TxB2 levels 24 hours after administration (serum TxB2): significant increase
- TEG PlateletMapping AA Aggregation ([3]; 81 mg IR QD, main study): 48 ± 29
- TEG PlateletMapping ADP Aggregation ([3]; 81 mg IR QD, main study): 74 ± 25
- TEG PlateletMapping MA (clot strength, mm) ([3]; 81 mg IR QD, main study): 65 ± 5 mm
- TEG PlateletMapping MA-AA (mm) ([3]; 81 mg IR QD, main study): 39 ± 15 mm
- TEG PlateletMapping MA-ADP (mm) ([3]; 81 mg IR QD, main study): 50 ± 18 mm
- TEG PlateletMapping MA-fibrin (mm) ([3]; 81 mg IR QD, main study): 17 ± 11 mm
- TEG PlateletMapping R (Clotting time, min) ([3]; 81 mg IR QD, main study): 6.8 ± 1.5 min
- TEG PlateletMapping AA Aggregation [3, 13]: 75 ± 17
- TEG PlateletMapping ADP Aggregation [3, 13]: 73 ± 21
- TEG PlateletMapping MA (clot strength, mm) [3, 13]: 64 ± 3 mm
- TEG PlateletMapping MA-AA (mm) [3, 13]: 54 ± 9 mm
- TEG PlateletMapping MA-ADP (mm) [3, 13]: 52 ± 11 mm
- TEG PlateletMapping MA-fibrin (mm) [3, 13]: 24 ± 12 mm
- TEG PlateletMapping R (Clotting time, min) [3, 13]: 7.1 ± 0.7 min
- VerifyNow Aspirin Assay (ARU) (platelet aggregation [4]; 81 mg IR QD, main study): 477 ± 72 ARU
- VerifyNow Aspirin Assay (ARU) (platelet aggregation [4]; [13]): 475 ± 102 ARU
- LTA (%) 2 μg/mL Collagen (Final) (platelet aggregation [5]; 81 mg IR QD, main study): 54 ± 25%
- LTA (%) 2 μg/mL Collagen (Max) (platelet aggregation [5]; 81 mg IR QD, main study): 57 ± 24%
- LTA (%) 4 μg/mL Collagen (Final) (platelet aggregation [5]; 81 mg IR QD, main study): 65 ± 20%
- LTA (%) 4 μg/mL Collagen (Max) (platelet aggregation [5]; 81 mg IR QD, main study): 66 ± 21%
- LTA (%) 5 μM ADP (Final) (platelet aggregation [5]; 81 mg IR QD, main study): 50 ± 17%
- LTA (%) 5 μM ADP (Max) (platelet aggregation [5]; 81 mg IR QD, main study): 59 ± 14%
- LTA (%) 1 mM AA (Max) (platelet aggregation [5]; 81 mg IR QD, main study): 5 ± 12%
- LTA (%) 2 mM AA (Final), first line so labelled (r8) (platelet aggregation [5]; 81 mg IR QD, main study): 5 ± 12%
- LTA (%) 2 mM AA (Final), second line (r10) (platelet aggregation [5]; 81 mg IR QD, main study): 6 ± 13%
- LTA (%) 2 mM AA (Max) (platelet aggregation [5]; 81 mg IR QD, main study): 7 ± 14%
- LTA (%) 2 μg/mL Collagen (Final) (platelet aggregation [5]; [13]): 67 ± 12%
- LTA (%) 2 μg/mL Collagen (Max) (platelet aggregation [5]; [13]): 68 ± 11%
- LTA (%) 4 μg/mL Collagen (Final) (platelet aggregation [5]; [13]): 71 ± 13%
- LTA (%) 4 μg/mL Collagen (Max) (platelet aggregation [5]; [13]): 73 ± 12%
- LTA (%) 5 μM ADP (Final) (platelet aggregation [5]; [13]): 52 ± 14%
- LTA (%) 5 μM ADP (Max) (platelet aggregation [5]; [13]): 61 ± 10%
- LTA (%) 1 mM AA (Max) (platelet aggregation [5]; [13]): 4 ± 2%
- LTA (%) 2 mM AA (Final), first line so labelled (r8) (platelet aggregation [5]; [13]): 3 ± 2%
- LTA (%) 2 mM AA (Final), second line (r10) (platelet aggregation [5]; [13]): 3 ± 2%
- LTA (%) 2 mM AA (Max) (platelet aggregation [5]; [13]): 4 ± 2%
- hs-CRP, Maximum [6]: 57.4 mg/L
- hs-CRP, Mean [6]: 9.62 mg/L
- hs-CRP, Minimum [6]: 0.44 mg/L
- single dose inhibition of TxB2 production [7]: maintained during a 24-hour period

— patent US20170112857A1, “Extended Release Aspirin” (New Haven Pharmaceuticals, Inc., priority 2015, published 2017)
